System: adult human epidermal keratinocytes (aHEK)
Experiment: Proliferation of adult human epidermal keratinocytes (aHEK)
Format: cell-based
Settings: 100 ug/ml; vs water (0 μg/ml)
From the text: Example 3(e): FIG. 6 depicts the effect of threitol-1 diphosphate on the proliferation of adult human epidermal keratinocytes (aHEK).

For `O=P(O)(O)OP(=O)(O)OC[C@@H](O)[C@H](O)CO` [DP sSBD4, threitol-1-diphosphate], the “stimulation of human adult epidermal keratinocyte proliferation” value was 17%.

— US8236784B2, “Composition comprising threitol phosphate and salts thereof” (Sunny Biodiscovery, Inc., priority 2007, dated 2012)
